Test results taken from patent US10085990B2, “Tricyclic compounds as modulators of TNF-α synthesis and as PDE4 inhibitors” (vTv Therapeutics LLC, priority 2008, dated 2018).

Tested on: TNF synthesis in human PBMC
Experiment: Human PBMC TNF Synthesis Assay
Type: cell-based
Conditions: LPS-stimulated human PBMC, overnight incubation, TNF ELISA; read-out: TNF inhib.
Experimental: Human PBMC TNF Synthesis Assay
Human PBMC were obtained by from a healthy human donor leuko pak. Typically, all donors were pre-screened for STD, HIV and have been given a physical by a physician. One to two ampoules were thawed at 37° C. and then resuspended in 45 to 85 mL of RPMI+10% FBS to a final concentration of 2.5×10^6 cells/mL. Resuspended cells were filtered to remove any large clumps.
Prepare compounds for addition to cells: All compounds were DMSO stocks at 20 mM. Working stock for cell testing were prepared as 4× concentrated material in RPMI+10% FBS. Compounds were added to a polypropylene block and then diluted with the appropriate amount of RPMI+10% FBS. Typically 2.6 μL of 20 mM stock was diluted to 650 μL final volume to yield an 80 μM starting concentration in the stocks. RPMI was added to DMSO stock by pipetting into the tube or block. The compounds were then serial diluted with RPMI+10% FBS. The final DMSO concentrations were not greater than 0.5% in the assay.
Compounds were added to the cells as 4× working stock. 50 μL of compound was prepared above is added to the cells and re-equilibrated in a humidified 5% CO2 incubator at 37° C. for 30 minutes.
A stock of LPS was prepared using RPMI+10% FBS. To prepare the stock, 2.8 μL of LPS (5 mg/mL; Sigma Cat #L3024) was added to 35 mL of media. 50 μL of the LPS in media was added to the cells. Control cultures without LPS received only RPMI+10% FBS. After an overnight incubation at 37° C., the cell culture supernatant was harvested and stored in a polypropylene 96 well plate.
Samples were tested for TNF as per the manufacturer's instructions (TNF ELISA; R&D Systems, Cat #DY210). The samples were serially diluted with PBS+1% BSA to the appropriate dilution condition for the cell prep, typically a 1:4 or 1:6 dilution.

| SMILES | IC50 [nM] |
| --- | --- |
| COc1cccc2c1ncc1c(=O)n(-c3cccc(Cl)c3)c(=O)n(C3CCN(C(=O)NC(C)C)CC3)c12 [Example 98, 4-[3-(3-Chloro-phenyl)-7-methoxy-2,4-dioxo-3,4-dihydro-2H-pyrimido[5,4-c]quinolin-1-yl]-piperidine-1-carboxylic acid isopropylamide] | 0.3 |
| COc1cccc2c1ncc1c(=O)n(-c3cccc(Cl)c3)c(=O)n(C3CCN(C(=O)OC(C)(C)C)CC3)c12 [Example 88, 4-[3-(3-Chloro-phenyl)-7-methoxy-2,4-dioxo-3,4-dihydro-2H-pyrimido[5,4-c]quinolin-1-yl]-piperidine-1-carboxylic acid tert-butyl ester] | 1 |
| COc1cccc2c1ncc1c(=O)n(-c3ccccc3)c(=O)n(C3CCCC3)c12 [Example 39, 1-Cyclopentyl-7-methoxy-3-phenyl-1H-pyrimido[5,4-c]quinoline-2,4-dione] | 1300 |
| CCn1c(=O)c2cnc3c(Cl)cccc3c2n(C2CCCC2)c1=O [Example 30, 7-Chloro-1-cyclopentyl-3-ethyl-1H-pyrimido[5,4-c]quinoline-2,4-dione] | 2500 |
